The target in one assay is T1, human DHODH (Homo sapiens, UniProt Q02127).
T1 construct: purchased Proteros PR-0044
Kind of assay: DHODH Enzymatic Assay. Type of assay: biochemical. The following applies: purified human DHODH; DCIP absorbance, end-point mode. The method, then:
To detect DHODH enzyme activities, dichloroindophenol (DCIP) is added as the final electron acceptor in the assay. DCIP can accept electrons from the reduced coenzyme Q generated in the assay, or from dihydroorotate (DHO) via FMN by binding presumably to the ubiquinone pocket. DCIP solutions are blue, with an intense absorbance around 600 nm, but becomes colorless upon reduction (J. Biol. Chem. (1986) 261, 11386). The assay buffer contained […], pH 7.5, 150 mM NaCl, 0.5 mM EDTA, and 0.1% Triton X-100 in MilliQ water. Substrate consisting of 20 mM DHO, 5 mM CoQ6, and 1 mM DCIP in assay buffer, initiates the reaction. The assay is run in end-point mode by quenching the reaction with the potent DHODH inhibitor brequinar. Absorbance measurements were obtained using the BMG Phera Star plate-reading spectrophotomer. Purified human DHODH was purchased from Proteros (cat. No. PR-0044). Chemicals were purchased from Sigma-Aldrich, Teknova, and Avanti Polar Lipids. Liquid handling was performed using Labcyte Echo and Formulatrix Tempest.

The test system of another assay is MOLM-13 cells. As to the kind of experiment: MOLM-13 Cellular Assay. Type of assay: cell-based. The following applies: 72 hours exposure, cell viability by CellTiter-Glo. The method, then:
MOLM-13 cells were obtained from DSMZ and were maintained in RPMI 1640+Glutamax+25 mM HEPES (Invitrogen, catalog number 72400) supplemented with 10% heat inactivated fetal bovine serum (FBS; Invitrogen, catalog number 16140). The day prior to assay set-up, cells were pelleted, resuspended in fresh media, counted, and cells were plated at 0.4×10^6 cell/mL in a T150 flask. On the day of the assay, cells were pelleted, resuspend in fresh media, counted, and seeded at 5,000 cells/well in white opaque 96-well tissue culture treated microplates (Perkin Elmer, catalog number 6005680). Cells were exposed to different concentrations of test compounds at 37° C., 5% CO2 for 72 hours immediately after seeding. Cell viability was acquired on a Perkin Elmer Envision 2104 multilabel reader using the CellTiter-Glo assay (Promega) according to the manufacturer's instructions.
In general terms: Cellular ATP, detected with luciferase, serves as a proxy for viable cell number.

We go through 16 compounds from patent publication US20230037448A1, “FLUORINATED QUINOLINE AND QUINOXALINE DERIVATIVES AS DIHYDROOROTATE DEHYDROGENASE (DHODH) INHIBITORS FOR THE TREATMENT OF CANCER, AUTOIMMUNE AND INFLAMMATORY DISEASES” (Janssen Biotech, Inc., priority 2019, published 2023).

pIC50: −log10 of the molar value.

T1 sequence (Q02127 whole entry): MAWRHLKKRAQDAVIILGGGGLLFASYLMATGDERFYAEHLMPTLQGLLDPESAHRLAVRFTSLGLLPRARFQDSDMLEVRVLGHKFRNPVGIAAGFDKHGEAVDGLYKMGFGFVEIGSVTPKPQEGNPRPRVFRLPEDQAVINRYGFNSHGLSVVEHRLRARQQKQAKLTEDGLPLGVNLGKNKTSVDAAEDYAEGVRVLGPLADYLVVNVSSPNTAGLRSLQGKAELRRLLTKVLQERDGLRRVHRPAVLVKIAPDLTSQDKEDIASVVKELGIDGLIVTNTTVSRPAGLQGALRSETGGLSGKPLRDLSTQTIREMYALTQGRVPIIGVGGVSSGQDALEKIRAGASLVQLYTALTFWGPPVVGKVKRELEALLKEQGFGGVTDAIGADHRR

As usually defined, the pIC50 is −log10 of the IC50, conventionally taken in molar units. Higher therefore signals a low IC50. Regarding `CCn1c(CO)nn(-c2cc3c(C(C)C)cc(-c4c(C)cnc(O)c4C)nc3cc2F)c1=O` [Example 19, 4-Ethyl-2-(7-fluoro-2-(2-hydroxy-3,5-dimethylpyridin-4-yl)-4-isopropylauinolin-6-yl)-5-(hydroxymethyl)-2,4-dihydro-3H-1,2,4-triazol-3-one], the pIC50 was 7.92 against human DHODH and less than 7.00 with MOLM-13 cells (Homo sapiens, MOLM-13, 72 h).

For `CCn1c(CO)nn(-c2cc3c(C(C)C)cc(-c4c(C(F)(F)F)n[nH]c4C)nc3cc2F)c1=O` [Example 3, 4-Ethyl-1-(7-fluoro-4-isopropyl-2-(5-methyl-3-(trifluoromethyl)-1H-pyrazol-4-yl)quinolin-6-yl)-3-(hydroxymethyl)-1H-1,2,4-triazol-5 (4H)-one], the pIC50 on human DHODH is 9.24; in the assay on MOLM-13 cells (Homo sapiens, MOLM-13, 72 h), 9.15.

`CCn1c(CO)nn(-c2cc3c(C(C)C)cc(-c4c(C)ccnc4OC)nc3cc2F)c1=O` [Example 11, 4-Ethyl-2-(7-fluoro-4-isopropyl-2-(2-methoxy-4-methylpyridin-3-yl)quinolin-6-yl)-5-(hydroxymethyl)-2,4-dihydro-3H-1,2,4-triazol-3-one]: the pIC50 is 7.49 on human DHODH and 7.52 in the assay with MOLM-13 cells (Homo sapiens, MOLM-13, 72 h).

As for `CCn1c(CO)nn(-c2cc3c(C(C)C)cc(-c4c(Cl)c(O)nn4C)nc3cc2F)c1=O` [Example 25, 2-(2-(4-Chloro-3-hydroxy-1-methyl-1H-pyrazol-5-yl)-7-fluoro-4-isopropylquinolin-6-yl)-4-ethyl-5-(hydroxymethyl)-2,4-dihydro-3H-1,2,4-triazol-3-one], the negative-log IC50 (pIC50) against human DHODH was 7.96; in the assay with MOLM-13 cells (Homo sapiens, MOLM-13, 72 h), 8.22.

On to `Cc1n[nH]c(C(F)(F)F)c1-c1cc(C(C)C)c2cc(-c3nc(CO)n(C)n3)c(F)cc2n1` [Example 28, (3-(7-Fluoro-4-isopropyl-2-(3-methyl-5-(trifluoromethyl)-pH-pyrazol-4-yl)quinolin-6-yl)-1-methyl-1H-1,2,4-triazol-5-yl)methanol], for which the pIC50 on human DHODH is 8.52; with MOLM-13 cells (Homo sapiens, MOLM-13, 72 h), 8.70.

In the case of `CCn1c(CO)nn(-c2cc3c(C(C)C)cc(-c4ccccc4OC)nc3cc2F)c1=O` [Example 1, 4-Ethyl-1-(7-fluoro-4-isopropyl-2-(2-methoxyphenyl)quinolin-6-yl)-3-(hydroxymethyl)-1H-1,2,4-triazol-5 (4H)-one], the negative logarithm of the IC50 (pIC50) against human DHODH was 8.48; in the assay on MOLM-13 cells (Homo sapiens, MOLM-13, 72 h), 8.59.

As for `CCn1c(CO)nn(-c2cc3c(C(C)C)cc(-c4c(Cl)n[nH]c4C)nc3cc2F)c1=O` [Example 2, 1-(2-(3-Chloro-5-methyl-1H-pyrazol-4-yl)-7-fluoro-4-isopropylauinolin-6-yl)-4-ethyl-3-(hydroxymethyl)-1H-1,2,4-triazol-5 (4H)-one], the pIC50 at human DHODH was 9.31; in the assay with MOLM-13 cells (Homo sapiens, MOLM-13, 72 h), 8.77.

Consider `Cc1n[nH]c(Cl)c1-c1cc(C(C)C)c2cc(-c3nc(C(C)O)n(C)n3)c(F)cc2n1` (centres unmarked) [Example 31, 1-(3-(2-(5-Chloro-3-methyl-1H-pyrazol-4-yl)-7-fluoro-4-isopropylauinolin-6-yl)-1-methyl-1H-1,2,4-triazol-5-yl)ethan-1-ol], for which the pIC50 against human DHODH is 8.80; in the assay with MOLM-13 cells (Homo sapiens, MOLM-13, 72 h) it was 9.08.

Take `CCn1c(CO)nn(-c2cc3c(C(C)C)cc(-c4cc(OC)ncc4C)nc3cc2F)c1=O` [Example 8, 4-Ethyl-1-(7-fluoro-4-isopropyl-2-(2-methoxy-5-methylpyridin-4-yl)quinolin-6-yl)-3-(hydroxymethyl)-1H-1,2,4-triazol-5 (4H)-one]: the pIC50 is 8.32 at human DHODH and 8.04 in the assay with MOLM-13 cells (Homo sapiens, MOLM-13, 72 h).

Turning to `CCn1c(CO)nn(-c2cc3c(C(C)C)cc(N4CCCC[C@H]4C)nc3cc2F)c1=O` [Example 18, (R)-4-Ethyl-2-(7-fluoro-4-isopropyl-2-(2-methylpiperidin-1-yl)quinolin-6-yl)-5-(hydroxymethyl)-2,4-dihydro-3H-1,2,4-triazol-3-one], the pIC50 against human DHODH is 5.64; in the assay with MOLM-13 cells (Homo sapiens, MOLM-13, 72 h) it was less than 7.00.

On to `CCn1c(CO)nn(-c2cc3c(C(C)C)cc(-c4c(C)cnc(OC)c4C)nc3cc2F)c1=O` [Example 4, 4-Ethyl-1-(7-fluoro-4-isopropyl-2-(2-methoxy-3,5-dimethylpyridin-4-yl)quinolin-6-yl)-3-(hydroxymethyl)-1H-1,2,4-triazol-5 (4H)-one], for which the pIC50 is 8.77 at human DHODH and 8.08 with MOLM-13 cells (Homo sapiens, MOLM-13, 72 h).

Consider `CCn1c(CO)nn(-c2cc3c(C(C)C)cc(-c4c[nH]nc4C4CC4)nc3cc2F)c1=O` [Example 15, 1-(2-(3-Cyclopropyl-1H-pyrazol-4-yl)-7-fluoro-4-isopropylquinolin-6-yl)-4-ethyl-3-(hydroxymethyl)-1H-1,2,4-triazol-5 (4H)-one], for which the pIC50 against human DHODH is 7.89; in the assay on MOLM-13 cells (Homo sapiens, MOLM-13, 72 h) it was 7.70.

Consider `CCn1c(CO)nn(-c2cc3c(C(C)C)cc(-c4c(C)cnc(OC)c4Cl)nc3cc2F)c1=O` [Example 7, 1-(2-(3-Chloro-2-methoxy-5-methylpyridin-4-yl)-7-fluoro-4-isopropylquinolin-6-yl)-4-ethyl-3-(hydroxymethyl)-1H-1,2,4-triazol-5 (4H)-one], for which the pIC50 is 8.82 against human DHODH and 8.40 with MOLM-13 cells (Homo sapiens, MOLM-13, 72 h).

For the compound `CCn1c(CO)nn(-c2cc3c(C(C)C)cc(-c4c[nH]nc4C)nc3cc2F)c1=O` [Example 16, 4-Ethyl-2-(7-fluoro-4-isopropyl-2-(3-methyl-1H-pyrazol-4-yl)quinolin-6-yl)-5-(hydroxymethyl)-2,4-dihydro-3H-1,2,4-triazol-3-one], the negative-log IC50 (pIC50) on human DHODH was 8.03; with MOLM-13 cells (Homo sapiens, MOLM-13, 72 h), less than 7.52.

For the compound `CCn1c(CO)nn(-c2cc3c(C(C)C(F)(F)F)cc(-c4ccccc4C)nc3cc2F)c1=O` (single isomer, unassigned) [Example 36, (S*)-4-Ethyl-1-(7-fluoro-2-(o-tolyl)-4-(1,1,1-trifluoropropan-2-yl)quinolin-6-yl)-3-(hydroxymethyl)-1H-1,2,4-triazol-5 (4H)-one], the pIC50 against human DHODH is 9.49; with MOLM-13 cells, 9.40.

For the compound `CCn1c(CO)nn(-c2cc3c(C(C)C)cc(-c4ccccc4C)nc3cc2F)c1=O` [Example 9, 4-Ethyl-1-(7-fluoro-4-isopropyl-2-(o-tolyl)quinolin-6-yl)-3-(hydroxymethyl)-1H-1,2,4-triazol-5 (4H)-one], the negative-log IC50 (pIC50) against human DHODH is 9.22; in the assay on MOLM-13 cells (Homo sapiens, MOLM-13, 72 h), 9.30.
